US9409952B2, “Peptide-compound cyclization method” (Chugai Seiyaku Kabushiki Kaisha, priority 2011, dated 2016)
Where two headings read alike, the source gives them in different places. Starred links: 1 amine or outer side, 2 acyl side, 3 side chain; linkers in the order of their positions; H or OH if unused. Positions of bridges follow the written chain, without caps; N, C: chain ends. Non-standard residues stand in square brackets, D forms with d. Residues, ends and D or L forms follow the SMILES beside them. *: point of attachment. NMeF = CN[C@@H](Cc1ccccc1)C(=O)O; NMeGABA = CN(CCCC(=O)[*:2])[*:1]; NMeβAla = CN(CCC(=O)[*:2])[*:1]; NMeL = CN[C@@H](CC(C)C)C(=O)O; NMeV = CN[C@H](C(=O)O)C(C)C; NMeA = CN[C@@H](C)C(=O)O; Piperidide = C1CCN(*)CC1; dNMeA = CN[C@H](C)C(=O)O; Sar = CNCC(=O)O; tBu = CC(C)(C)*

Legend:
[1] = PAMPA (parallel artificial membrane permeability assay); format: in vitro ADME; conditions: for Papp at 18 hours, 50 µM: PAMPA
Summary of the method: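 Artificial membrane was 10% (w/v) egg lecithin plus 0.5% (w/v) cholesterol in dodecane on a PVDF filter. A 10 mM DMSO stock was added at 0.5% (v/v) to donor buffer (50 mM MOPSO, pH 6.5, 5.0% glycocholic acid). After 18 h at 37 °C, LC/MS or LC/UV gave donor and acceptor levels for Pe.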

[2] = Metabolic stability in human hepatic microsome; format: in vitro ADME; conditions: microsomes
[3] = membrane permeation rate (Pe), 50 mM MOPSO buffer pH 6.5 with 5.0% glycocholic acid, 37° C., 18 hours, read-out: iPAMPA Pe
[4] = pH 7.4, human hepatic microsome, NADPH(+), read-out: CL NADPH(+)

| SMILES | Papp at 18 hours, 50 µM [1, 3] [×10⁻⁶ cm/s] | microsomal CLint at 1 uM [2, 4] [µL/min/mg] | iPAMPA Pe ([1]; membrane permeation rate (Pe), 50 mM MOPSO buffer pH 6.5 with 5.0% glycocholic acid, 37° C., 18 hours) | Papp at 18 hours, 50 µM ([1]; pH 6.5) [×10⁻⁶ cm/s] | microsomal CLint at 1 uM ([2]; human, pH 7.4, CL NADPH(+)) [µL/min/mg] |
| --- | --- | --- | --- | --- | --- |
| CC(C)C[C@H]1C(=O)N(C)[C@@H](C)C(=O)N(C)[C@@H](C(C)C)C(=O)N[C@@H](C)C(=O)N[C@H](C(=O)N(C)[C@@H](Cc2ccccc2)C(=O)N(C)[C@@H](Cc2ccccc2)C(=O)N[C@@H](C)C(=O)N2CCCCC2)CC(=O)N(C)[C@H](C)C(=O)N(C)CC(=O)N[C@@H]([C@@H](C)O)C(=O)N(C)[C@@H](C)C(=O)N[C@@H](Cc2ccccc2)C(=O)N1C [DP-507] ([dNMeA][Sar]T[NMeA]F[NMeL][NMeA][NMeV]AD[NMeF][NMeF]A-Piperidide; lactam N-10) | 11 | 17 | – | – | – |
| CC[C@H](C)[C@@H]1NC(=O)[C@H](C)N(C)C(=O)[C@H]([C@@H](C)O)NC(=O)CN(C)C(=O)[C@H](C)N(C)C(=O)[C@H](C)NC(=O)[C@H](C)N(C)C(=O)[C@@H](C)N(C)C(=O)C[C@@H](C(=O)N(C)[C@@H](Cc2ccccc2)C(=O)N(C)[C@@H](Cc2ccccc2)C(=O)N[C@@H](C)C(=O)N2CCCCC2)NC(=O)[C@H](Cc2ccccc2)N(C)C1=O [DP-508] ([dNMeA][NMeA]A[NMeA][Sar]T[NMeA]I[NMeF]D[NMeF][NMeF]A-Piperidide; lactam N-10) | 2.5 | 11 | – | – | – |
| CC(C)[C@@H]1NC(=O)[C@H](C)N(C)C(=O)[C@@H](C)N(C)C(=O)C[C@@H](C(=O)N(C)[C@@H](Cc2ccccc2)C(=O)N(C)[C@@H](Cc2ccccc2)C(=O)N[C@@H](C)C(=O)N2CCCCC2)NC(=O)[C@H](C)N(C)C(=O)[C@H](C)N(C)C(=O)[C@H]([C@@H](C)O)NC(=O)[C@H](C)N(C)C(=O)[C@H](Cc2ccccc2)N(C)C(=O)[C@H](C)N(C)C1=O [DP-509] ([dNMeA][NMeA]V[NMeA][NMeF][NMeA]T[NMeA][NMeA]D[NMeF][NMeF]A-Piperidide; lactam N-10) | 5.1 | 30 | – | – | – |
| CC(C)C[C@H]1C(=O)N[C@@H](C(C)C)C(=O)N(C)[C@@H](C)C(=O)N[C@@H]([C@@H](C)O)C(=O)N(C)[C@@H](C)C(=O)N[C@H](C(=O)N2CCCCC2)CC(=O)N(C)CCC(=O)N(C)[C@@H](C)C(=O)N(C)[C@@H](Cc2ccccc2)C(=O)N[C@@H](C)C(=O)N(C)[C@@H](CC(C)C)C(=O)N(C)CC(=O)N1C [DP-511] ([NMeβAla][NMeA][NMeF]A[NMeL][Sar][NMeL]V[NMeA]T[NMeA]D-Piperidide; lactam N-12) | 1.1 | 15 | – | – | – |
| CC[C@H](C)[C@@H]1NC(=O)[C@H](CC(C)C)N(C)C(=O)CN(C)C(=O)[C@H]([C@@H](C)O)NC(=O)[C@@H](C)N(C)C(=O)C[C@@H](C(=O)N2CCCCC2)NC(=O)[C@H](CC(C)C)N(C)C(=O)[C@H](Cc2ccccc2)N(C)C(=O)[C@H](CC(C)C)N(C)C1=O [DP-512] ([dNMeA]T[Sar][NMeL]I[NMeL][NMeF][NMeL]D-Piperidide; lactam N-9) | 18 | 62 | – | – | – |
| CC[C@H](C)[C@@H]1NC(=O)[C@H](Cc2ccccc2)NC(=O)[C@H](CC(C)C)NC(=O)[C@H](CC(C)C)NC(=O)[C@H](C)NC(=O)C[C@@H](C(=O)N2CCCCC2)NC(=O)[C@H](CC(C)C)N(C)C(=O)[C@H](Cc2ccccc2)NC(=O)[C@H](CC(C)C)NC(=O)CNC(=O)[C@H]([C@@H](C)O)NC1=O [DP-513] (ALLFITGLF[NMeL]D-Piperidide; lactam N-11) | 30 | 184 | – | – | – |
| CC(C)C[C@@H]1NC(=O)[C@H](C)NC(=O)[C@H]([C@@H](C)O)NC(=O)[C@H](CC(C)C)NC(=O)[C@H](CC(C)C)NC(=O)[C@H](C(C)C)NC(=O)CCN(C)C(=O)C[C@@H](C(=O)N2CCCCC2)NC(=O)[C@H](CC(C)C)NC(=O)[C@H](Cc2ccccc2)NC(=O)[C@H](CC(C)C)NC1=O [DP-514] ([NMeβAla]VLLTALLFLD-Piperidide; lactam N-11) | 6.8 | 103 | – | – | – |
| CC[C@H](C)[C@@H]1NC(=O)[C@H](Cc2ccccc2)NC(=O)[C@H](CC(C)C)NC(=O)[C@@H](C)NC(=O)C[C@@H](C(=O)N2CCCCC2)NC(=O)[C@H](Cc2ccccc2)NC(=O)[C@H](CC(C)C)NC(=O)[C@H]([C@@H](C)O)NC(=O)[C@H](Cc2ccccc2)NC(=O)[C@H](CC(C)C)NC1=O [DP-515] ([dA]LFILFTLFD-Piperidide; lactam N-10) | – | 23 | 1.0E−07 | – | – |
| CC[C@H](C)[C@@H]1NC(=O)[C@H](CC(C)C)N(C)C(=O)[C@H](Cc2ccccc2)N(C)C(=O)CN(C)C(=O)[C@H](C)N(C)C(=O)[C@H](Cc2ccccc2)N(C)C(=O)[C@H](C)N(C)C(=O)[C@H]([C@@H](C)O)NC(=O)[C@H](C(C)C)N(C)C(=O)CCN(C)C(=O)C[C@@H](C(=O)N2CCCCC2)NC1=O [DP-516] ([NMeβAla][NMeV]T[NMeA][NMeF][NMeA][Sar][NMeF][NMeL]ID-Piperidide; lactam N-11) | 9.1 | 19 | – | – | – |
| CC(C)C[C@@H]1NC(=O)[C@H](CC(C)C)N(C)C(=O)[C@H](C)N(C)C(=O)C[C@@H](C(=O)N2CCCCC2)NC(=O)[C@H](CC(C)C)N(C)C(=O)[C@H](Cc2ccccc2)N(C)C(=O)[C@H](C)N(C)C(=O)[C@H]([C@@H](C)O)NC(=O)[C@H](Cc2ccccc2)N(C)C1=O [DP-520] ([NMeA][NMeL]L[NMeF]T[NMeA][NMeF][NMeL]D-Piperidide; lactam N-9) | 29 | 130 | – | – | – |
| CC(C)C[C@H]1C(=O)N(C)[C@@H](Cc2ccccc2)C(=O)N[C@H](C(=O)N2CCCCC2)CC(=O)N(C)CC(=O)N[C@@H]([C@@H](C)O)C(=O)N(C)[C@@H](C)C(=O)N[C@@H](COC(C)(C)C)C(=O)N(C)[C@@H](Cc2ccccc2)C(=O)N1C [DP-521] ([Sar]T[NMeA]S(tBu)[NMeF][NMeL][NMeF]D-Piperidide; lactam N-8) | 44 | 125 | – | – | – |
| CC(C)C[C@H]1C(=O)NCC(=O)N[C@H](C(=O)N2CCCCC2)CC(=O)N(C)CCC(=O)N[C@@H]([C@@H](C)O)C(=O)N(C)[C@@H](C)C(=O)N[C@@H](COC(C)(C)C)C(=O)N(C)[C@@H](Cc2ccccc2)C(=O)N1C [DP-522] ([NMeβAla]T[NMeA]S(tBu)[NMeF][NMeL]GD-Piperidide; lactam N-8) | 5.3 | 87 | – | – | – |
| CC(C)C[C@H]1C(=O)N[C@@H](COC(C)(C)C)C(=O)N[C@H](C(=O)N2CCCCC2)CC(=O)N(C)[C@@H](C)C(=O)N(C)[C@@H](Cc2ccccc2)C(=O)N(C)[C@@H](CC(C)C)C(=O)N[C@@H]([C@@H](C)O)C(=O)N(C)CC(=O)N1C [DP-523] ([NMeA][NMeF][NMeL]T[Sar][NMeL]S(tBu)D-Piperidide; lactam N-8) | 20 | 99 | – | – | – |
| CC(C)C[C@H]1C(=O)N[C@@H]([C@@H](C)O)C(=O)N(C)[C@@H](C)C(=O)N(C)[C@@H](CC(C)C)C(=O)N(C)[C@@H](Cc2ccccc2)C(=O)N[C@H](C(=O)N2CCCCC2)CC(=O)N(C)CCCC(=O)N(C)[C@@H](C)C(=O)N1C [DP-524] ([NMeGABA][NMeA][NMeL]T[NMeA][NMeL][NMeF]D-Piperidide; lactam N-8) | 16 | 162 | – | – | – |
| CC(C)C[C@H]1C(=O)N(C)[C@@H](CC(C)C)C(=O)N[C@H](C(=O)N2CCCCC2)CC(=O)N(C)CCCC(=O)N(C)[C@@H](Cc2ccccc2)C(=O)N[C@@H]([C@@H](C)O)C(=O)N(C)CC(=O)N[C@@H](COC(C)(C)C)C(=O)N1C [DP-525] ([NMeGABA][NMeF]T[Sar]S(tBu)[NMeL][NMeL]D-Piperidide; lactam N-8) | 22 | 86 | – | – | – |
| CC(C)C[C@H]1C(=O)N(C)[C@@H](Cc2ccccc2)C(=O)N[C@H](C(=O)N2CCCCC2)CC(=O)N[C@H](C(C)C)C(=O)N[C@@H](C)C(=O)N[C@@H]([C@@H](C)O)C(=O)N(C)[C@@H](C)C(=O)N[C@@H](Cc2ccccc2)C(=O)N1C [DP-526] ([dV]AT[NMeA]F[NMeL][NMeF]D-Piperidide; lactam N-8) | 14 | 49 | – | – | – |
| CC(C)C[C@H]1C(=O)N[C@H](C(=O)N2CCCCC2)CC(=O)N(C)[C@H](C)C(=O)N(C)[C@@H](Cc2ccccc2)C(=O)N(C)[C@@H](CC(C)C)C(=O)N[C@@H]([C@@H](C)O)C(=O)N(C)CC(=O)N[C@@H](COC(C)(C)C)C(=O)N1C [DP-527] ([dNMeA][NMeF][NMeL]T[Sar]S(tBu)[NMeL]D-Piperidide; lactam N-8) | 11 | 30 | – | – | – |
| CC(C)C[C@H]1C(=O)N[C@@H](COC(C)(C)C)C(=O)N[C@H](C(=O)N2CCCCC2)CC(=O)N[C@H](C)C(=O)N(C)[C@@H](Cc2ccccc2)C(=O)N(C)[C@@H](CC(C)C)C(=O)N[C@@H]([C@@H](C)O)C(=O)N(C)CC(=O)N1C [DP-528] ([dA][NMeF][NMeL]T[Sar][NMeL]S(tBu)D-Piperidide; lactam N-8) | 13 | 55 | – | – | – |
| CC(C)C[C@H]1C(=O)N[C@@H](COC(C)(C)C)C(=O)N[C@H](C(=O)N2CCCCC2)CC(=O)N[C@H](C)C(=O)N(C)[C@@H](Cc2ccccc2)C(=O)N(C)[C@@H](CC(C)C)C(=O)N[C@@H]([C@@H](C)O)C(=O)N(C)[C@@H](C)C(=O)N1C [DP-529] ([dA][NMeF][NMeL]T[NMeA][NMeL]S(tBu)D-Piperidide; lactam N-8) | 23 | 100 | – | – | – |
| CC(C)C[C@@H]1NC(=O)[C@H](Cc2ccccc2)N(C)C(=O)[C@H]([C@@H](C)O)NC(=O)[C@H](Cc2ccccc2)N(C)C(=O)[C@H](C)N(C)C(=O)[C@H](C)NC(=O)C[C@@H](C(=O)N2CCCCC2)NC(=O)[C@@H]2CCCN2C1=O [DP-530] (A[NMeA][NMeF]T[NMeF]LPD-Piperidide; lactam N-8) | – | – | – | 11 | 37 |
